Experimental data from ChEMBL document CHEMBL1201862, “PubChem BioAssay data set” (2004).
Active and inactive are the calls of the source.

Experiments:
[1] = inhibitors of SNCA 5'UTR-driven reporter translation, confirmation, H4 neuroglioma cells, luminescence (AID 1988); format: functional, cell-based
[2] = Luminescence Cell-Based Dose Response HTS to Identify Inhibitors of 5'UTR Stem-Loop Driven Prion Protein mRNA Translation in H4 Neuroglioblastoma Cells. [Related pubchem assays: 1827 (Project Summary), 1813 (Primary HTS)]; format: functional
[3] = inhibitors of firefly luciferase expression or activity, dose response, H4 neuroglioma cells, luminescence (AID 1990); format: functional, cell-based
[4] = system: HEK293; assay: inhibitors of LMP1-driven NF-kB reporter, dose response, cell-based, HEK293, luciferase, cherry-pick (AID 588343); format: functional; settings: Homo sapiens
[5] = target: T1, Apoptotic protease-activating factor 1 (Homo sapiens, UniProt O14727); format: functional
T1 sequence (O14727 whole entry): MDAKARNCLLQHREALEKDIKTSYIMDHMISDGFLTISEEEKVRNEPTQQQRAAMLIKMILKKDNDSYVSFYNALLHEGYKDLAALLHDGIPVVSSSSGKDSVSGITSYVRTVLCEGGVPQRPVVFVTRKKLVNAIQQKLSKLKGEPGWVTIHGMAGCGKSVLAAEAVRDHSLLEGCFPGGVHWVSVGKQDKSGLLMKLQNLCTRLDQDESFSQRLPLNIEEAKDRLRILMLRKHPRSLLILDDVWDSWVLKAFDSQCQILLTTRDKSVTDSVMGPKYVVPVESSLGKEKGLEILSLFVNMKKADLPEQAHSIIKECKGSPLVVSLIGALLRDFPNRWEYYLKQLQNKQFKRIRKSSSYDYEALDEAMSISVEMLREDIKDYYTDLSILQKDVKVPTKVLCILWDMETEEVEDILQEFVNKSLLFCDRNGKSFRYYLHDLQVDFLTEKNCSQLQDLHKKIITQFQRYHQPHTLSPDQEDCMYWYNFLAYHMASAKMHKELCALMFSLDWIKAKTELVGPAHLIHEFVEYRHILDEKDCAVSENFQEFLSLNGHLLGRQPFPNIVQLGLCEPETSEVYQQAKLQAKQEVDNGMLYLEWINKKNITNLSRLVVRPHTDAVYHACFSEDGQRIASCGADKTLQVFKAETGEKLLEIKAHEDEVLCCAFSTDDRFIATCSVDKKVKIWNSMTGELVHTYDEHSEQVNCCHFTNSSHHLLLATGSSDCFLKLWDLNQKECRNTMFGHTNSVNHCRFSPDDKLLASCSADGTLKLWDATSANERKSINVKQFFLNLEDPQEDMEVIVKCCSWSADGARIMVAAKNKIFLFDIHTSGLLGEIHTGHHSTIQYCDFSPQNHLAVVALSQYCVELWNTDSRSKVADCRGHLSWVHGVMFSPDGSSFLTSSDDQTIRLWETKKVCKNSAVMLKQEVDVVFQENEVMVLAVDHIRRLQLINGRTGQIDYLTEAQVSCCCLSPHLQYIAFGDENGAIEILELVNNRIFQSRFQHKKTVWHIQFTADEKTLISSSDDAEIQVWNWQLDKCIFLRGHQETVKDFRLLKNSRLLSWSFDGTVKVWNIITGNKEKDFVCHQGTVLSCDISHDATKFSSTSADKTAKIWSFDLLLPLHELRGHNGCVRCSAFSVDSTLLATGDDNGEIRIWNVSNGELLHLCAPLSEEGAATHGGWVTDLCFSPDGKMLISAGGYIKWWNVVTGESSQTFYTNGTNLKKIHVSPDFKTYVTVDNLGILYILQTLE

[6] = Artemis endonuclease inhibitor potency, dose response, biochemical, fluorescence intensity (AID 720701); format: functional;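 note: Artemis endonuclease enzyme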
[7] = system: Candida albicans; assay: fluconazole resistance reversal in C. albicans, dose response, CaCi-2 strain, Alamar Blue, dry powder, set 4 (AID 488943); format: functional, organism-based
[8] = system: Candida albicans; assay: growth inhibition of resistant C. albicans, dose response, CaCi-8 strain, fluconazole, dry powder, set 4 (AID 488950); format: functional, organism-based
[9] = system: Candida albicans; assay: C. albicans growth inhibition with fluconazole, dose response, antifungal resistance reversal project, CaCi-2 strain, Alamar Blue, dry powder, set 2 (AID 488930); format: functional, organism-based
[10] = system: Candida albicans; assay: growth inhibition of azole-resistant C. albicans, dose response, CaCi-8 strain, Alamar Blue, dry powder, set 2 (AID 488909); format: functional, organism-based
[11] = system: INS1; assay: beta cell apoptosis inhibitors, cytokine rescue, dose response, luminescence, retest (AID 449756); format: functional, cell-based; settings: Rattus norvegicus, INS1;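 note: cell death triggered by IL-1 beta plus TNF-alpha plus IFN-gamma mixture; protective hits raise ATP signal compared with cytokine alone wells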
[12] = NIH-3T3 fibroblast cytotoxicity, dose response, cytotoxicity control, cell-based, fluorescence, Alamar Blue, secondary assay (AID 2327); format: functional;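 note: NIH-3T3 mouse fibroblasts cultured with fluconazole at 8 µg/mL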
[13] = cytotoxicity toward NIH3T3 fibroblasts, dose response, counter-screen, cell-based, ATP luminescence, mouse fibroblasts (AID 2010); format: functional;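 note: cells exposed to compound for about 90 hours before reading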
[14] = target: T2, Protein RecA (Mycobacterium tuberculosis, UniProt P9WHJ3); assay: Fluorescence Cell-Free Homogeneous Dose Retest to Identify Inhibitors of RecA-Intein Splicing Activity. [Related pubchem assays (depositor defined):AID2097, AID2223, AID489010, AID492950]; format: functional
T2 sequence (P9WHJ3 whole entry): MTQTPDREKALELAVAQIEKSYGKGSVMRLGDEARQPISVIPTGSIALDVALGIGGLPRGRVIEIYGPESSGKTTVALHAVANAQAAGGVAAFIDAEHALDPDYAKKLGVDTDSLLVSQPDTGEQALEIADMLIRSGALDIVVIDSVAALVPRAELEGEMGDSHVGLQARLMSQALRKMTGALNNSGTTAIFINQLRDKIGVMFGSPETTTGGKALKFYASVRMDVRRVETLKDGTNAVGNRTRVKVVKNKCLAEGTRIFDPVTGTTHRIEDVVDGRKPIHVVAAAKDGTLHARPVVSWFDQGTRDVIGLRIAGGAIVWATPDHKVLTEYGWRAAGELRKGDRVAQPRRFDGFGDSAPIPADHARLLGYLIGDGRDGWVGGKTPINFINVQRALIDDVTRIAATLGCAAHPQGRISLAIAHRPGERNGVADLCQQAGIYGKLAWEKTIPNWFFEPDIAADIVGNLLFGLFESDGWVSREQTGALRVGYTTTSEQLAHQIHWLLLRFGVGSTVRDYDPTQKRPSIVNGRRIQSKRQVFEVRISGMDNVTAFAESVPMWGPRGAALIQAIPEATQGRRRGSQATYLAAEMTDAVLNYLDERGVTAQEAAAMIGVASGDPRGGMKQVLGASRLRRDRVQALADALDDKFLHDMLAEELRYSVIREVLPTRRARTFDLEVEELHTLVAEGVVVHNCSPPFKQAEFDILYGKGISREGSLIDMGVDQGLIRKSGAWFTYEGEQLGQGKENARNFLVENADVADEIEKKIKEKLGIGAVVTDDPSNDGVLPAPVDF

[15] = C. albicans growth with fluconazole, confirmation, fluorescence, retest (AID 2467); format: functional, cell-based
[16] = target: Serine/threonine-protein phosphatase (Candida dubliniensis (strain CD36 / CBS 7987 / NCPF 3949 / NRRLY-17841) (Yeast), UniProt B9W6M3); assay: calcineurin pathway inhibitors in yeast reporter, dose response, S. cerevisiae, CDRE-lacZ, luminescence, secondary (AID 2388); format: functional, cell-based;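 note: yeast reporter cells carrying a calcineurin-responsive lacZ construct stimulated with calcium chloride; luminescent beta-galactosidase reporter signal in whole cells rather than isolated phosphatase activity; potency for inhibition where a drop in reporter signal means calcineurin blockade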
[17] = inhibitors of intracellular T. cruzi replication, confirmation, NIH3T3 host cells, beta-gal luminescence (AID 2044); format: functional, cell-based;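 note: intracellular parasites grown in NIH/3T3 mouse fibroblasts as host cells; luminescent beta-galactosidase reporter signal from transgenic T. cruzi replicating inside host cells; inhibitors lower the luminescence signal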
[18] = target: ATP-dependent molecular chaperone HSP82 (Candida albicans (strain WO-1) (Yeast), UniProt C4YTQ8); assay: loss of DOC-induced GRE-beta-galactosidase reporter signal, dose response, Hsp90 inhibitor project, S. cerevisiae, luminescence (AID 2400); format: functional, cell-based;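 note: beta-galactosidase luminescence from glucocorticoid response element reporter as proxy for Hsp90 function; inhibitor potency where signal loss means Hsp90 inhibition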
[19] = target: T3, Replicative DNA helicase DnaB (Mycobacterium tuberculosis, UniProt P9WMR3); assay: DnaB intein splicing inhibitors, dose response, biochemical, cell-free fluorescence (AID 449749); format: functional
T3 sequence (P9WMR3 whole entry): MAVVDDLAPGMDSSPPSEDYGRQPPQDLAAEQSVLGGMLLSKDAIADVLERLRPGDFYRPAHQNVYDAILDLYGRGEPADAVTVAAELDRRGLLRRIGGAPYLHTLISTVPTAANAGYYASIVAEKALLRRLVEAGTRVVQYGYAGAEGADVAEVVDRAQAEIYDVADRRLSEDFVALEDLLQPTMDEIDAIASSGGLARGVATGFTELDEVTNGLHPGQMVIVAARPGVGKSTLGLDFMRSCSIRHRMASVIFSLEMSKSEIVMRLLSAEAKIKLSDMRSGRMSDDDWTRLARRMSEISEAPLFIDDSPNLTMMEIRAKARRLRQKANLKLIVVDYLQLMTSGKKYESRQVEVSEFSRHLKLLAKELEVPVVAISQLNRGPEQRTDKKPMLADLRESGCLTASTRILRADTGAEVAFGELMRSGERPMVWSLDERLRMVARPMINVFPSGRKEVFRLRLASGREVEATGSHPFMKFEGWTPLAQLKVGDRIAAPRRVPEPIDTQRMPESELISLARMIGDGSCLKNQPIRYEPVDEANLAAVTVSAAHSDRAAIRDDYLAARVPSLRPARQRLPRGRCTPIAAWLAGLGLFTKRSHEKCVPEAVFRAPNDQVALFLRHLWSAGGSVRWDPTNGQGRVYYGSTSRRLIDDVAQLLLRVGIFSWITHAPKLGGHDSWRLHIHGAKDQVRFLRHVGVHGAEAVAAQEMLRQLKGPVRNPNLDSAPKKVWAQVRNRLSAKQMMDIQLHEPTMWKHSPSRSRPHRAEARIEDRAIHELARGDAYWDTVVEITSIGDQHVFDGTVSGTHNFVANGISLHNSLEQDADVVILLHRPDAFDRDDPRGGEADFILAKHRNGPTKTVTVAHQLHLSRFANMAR

[20] = system: INS1; assay: caspase-3/7 inhibition in cytokine-treated INS-1E, dose response, beta-cell apoptosis inhibitor project, cell-based, caspase luminescence, dry powder (AID 488848); format: functional; settings: Rattus norvegicus
[21] = target: Short transient receptor potential channel 6 (Mus musculus, UniProt Q61143); assay: TRPC6 inhibition potency of TRPC4 inhibitor analogs, dose response, selectivity assay for selective TRPC4 inhibitor project, HEK293 cells, membrane potential dye, IC50 (AID 492987); format: functional, cell-based
Chain of Short transient receptor potential channel 6 (Q61143 whole entry): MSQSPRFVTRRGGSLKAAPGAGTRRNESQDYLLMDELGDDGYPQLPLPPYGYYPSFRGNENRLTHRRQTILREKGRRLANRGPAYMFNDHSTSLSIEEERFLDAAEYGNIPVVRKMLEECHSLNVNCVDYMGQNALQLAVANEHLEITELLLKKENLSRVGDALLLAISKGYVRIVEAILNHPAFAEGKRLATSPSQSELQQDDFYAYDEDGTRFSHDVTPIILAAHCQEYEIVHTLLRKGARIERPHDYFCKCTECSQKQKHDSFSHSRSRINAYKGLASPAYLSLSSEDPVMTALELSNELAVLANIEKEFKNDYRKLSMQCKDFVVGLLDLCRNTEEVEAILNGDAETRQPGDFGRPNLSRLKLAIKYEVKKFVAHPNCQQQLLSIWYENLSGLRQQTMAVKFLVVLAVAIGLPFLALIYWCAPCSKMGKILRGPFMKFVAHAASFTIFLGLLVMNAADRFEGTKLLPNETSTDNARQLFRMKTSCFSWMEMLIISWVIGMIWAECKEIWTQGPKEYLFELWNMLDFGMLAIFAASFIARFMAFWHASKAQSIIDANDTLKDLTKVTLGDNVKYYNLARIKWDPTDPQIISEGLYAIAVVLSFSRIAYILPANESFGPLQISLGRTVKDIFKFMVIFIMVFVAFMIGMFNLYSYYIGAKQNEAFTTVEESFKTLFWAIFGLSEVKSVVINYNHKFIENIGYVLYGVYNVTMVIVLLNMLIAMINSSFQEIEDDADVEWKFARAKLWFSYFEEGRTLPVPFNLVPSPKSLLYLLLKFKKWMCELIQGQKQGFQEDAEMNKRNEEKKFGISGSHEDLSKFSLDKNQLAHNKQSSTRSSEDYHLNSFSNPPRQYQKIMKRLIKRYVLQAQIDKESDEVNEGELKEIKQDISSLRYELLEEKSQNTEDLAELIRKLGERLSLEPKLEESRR

Chain of Serine/threonine-protein phosphatase (B9W6M3 whole entry): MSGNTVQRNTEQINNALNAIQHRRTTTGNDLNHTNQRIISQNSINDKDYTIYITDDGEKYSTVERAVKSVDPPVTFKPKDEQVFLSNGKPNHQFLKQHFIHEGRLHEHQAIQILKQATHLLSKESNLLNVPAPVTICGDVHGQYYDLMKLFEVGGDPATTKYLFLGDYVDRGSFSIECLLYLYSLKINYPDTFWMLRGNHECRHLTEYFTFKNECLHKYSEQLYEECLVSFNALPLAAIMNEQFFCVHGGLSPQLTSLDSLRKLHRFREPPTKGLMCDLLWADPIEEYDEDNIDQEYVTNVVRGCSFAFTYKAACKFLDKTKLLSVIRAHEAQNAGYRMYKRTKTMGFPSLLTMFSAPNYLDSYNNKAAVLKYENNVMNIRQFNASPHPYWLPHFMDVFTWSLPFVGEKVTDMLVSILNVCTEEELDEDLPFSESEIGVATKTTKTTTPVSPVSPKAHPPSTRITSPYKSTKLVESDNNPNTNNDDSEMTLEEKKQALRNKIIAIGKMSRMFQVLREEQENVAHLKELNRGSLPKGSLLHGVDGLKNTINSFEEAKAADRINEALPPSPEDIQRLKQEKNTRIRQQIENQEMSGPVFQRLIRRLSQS
Chain of ATP-dependent molecular chaperone HSP82 (C4YTQ8 whole entry): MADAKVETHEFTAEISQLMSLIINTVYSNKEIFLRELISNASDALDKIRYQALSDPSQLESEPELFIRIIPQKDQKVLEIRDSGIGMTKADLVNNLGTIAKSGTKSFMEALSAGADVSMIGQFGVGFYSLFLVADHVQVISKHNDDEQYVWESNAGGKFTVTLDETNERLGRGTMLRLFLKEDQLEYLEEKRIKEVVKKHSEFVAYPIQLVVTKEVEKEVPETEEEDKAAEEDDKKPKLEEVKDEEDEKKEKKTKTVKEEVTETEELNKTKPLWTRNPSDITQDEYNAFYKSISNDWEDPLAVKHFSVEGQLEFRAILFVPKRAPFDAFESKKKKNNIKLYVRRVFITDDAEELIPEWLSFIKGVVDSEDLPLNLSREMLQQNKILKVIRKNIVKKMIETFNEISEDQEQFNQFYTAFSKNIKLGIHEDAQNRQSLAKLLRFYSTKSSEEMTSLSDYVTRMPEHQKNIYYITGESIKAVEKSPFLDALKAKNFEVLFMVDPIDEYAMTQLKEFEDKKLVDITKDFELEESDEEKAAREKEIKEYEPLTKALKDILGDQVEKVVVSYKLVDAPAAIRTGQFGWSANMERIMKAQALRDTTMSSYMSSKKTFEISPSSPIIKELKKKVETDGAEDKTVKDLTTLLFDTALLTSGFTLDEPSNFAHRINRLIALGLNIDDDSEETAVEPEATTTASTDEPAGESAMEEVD

In the case of `Clc1ccc(-c2cn3nc4c(nc3n2)CCCC4)cc1`, the EC50 [1] is reported as 1.51 µM (active), the EC50 [2] is reported as 5.88 µM (active) and the EC50 [3] is reported as 3.45 µM (active). The AC50 [4] was 1.45 µM (active), the IC50 [5] was 17.5 µM (active) and the IC50 [6] was > 20 µM (inactive).

For `O=C(c1cccc(Cl)c1)N1CCN(c2ccnc3cc(Cl)ccc23)CC1`, the AC50 [7] was 2.75 µM (active), the AC50 [8] was 2.43 µM (active) and the AC50 [9] was 2.33 µM (active). The AC50 [10] was 8.31 µM (active).

For `COc1ccccc1NC1=C(N2CCCCC2)C(=O)c2ccccc2C1=O`, the AC50 [11] was 0.916 µM (active), the EC50 [12] was 41.7 µM (active) and the EC50 [13] was > 30 µM (not active). For the same compound, the EC50 [14] was 1.51 µM (active), the EC50 [15] was 1.02 µM (active) and the EC50 [16] was > 180 µM (inactive). For the same compound, the IC50 [5] was 3.32 µM (active), the EC50 [17] was 0.56 µM (active) and the EC50 [18] was > 160 µM (inactive). For the same compound, the AC50 [19] was 18.6 µM (active).

With `COc1ccc(S(=O)(=O)N(C)C[C@@H]2Oc3c(NC(=O)Nc4cccc5c4ccn5C)cccc3C(=O)N([C@@H](C)CO)C[C@H]2C)cc1` the AC50 [20] was 17.5 µM (active).

In the case of `FC(F)(F)c1cc(N2CCCC2)nc2ccccc12`, the IC50 [21] is reported as 23.1 µM (active).
